Measured values as given in ChEMBL document CHEMBL1201862, “PubChem BioAssay data set” (2004).
Activity calls are given as the source filed them.

Columns and labels:
P388/ADR = test: cells; type: functional; details: Mus musculus
SN12K1 = test: cells; type: functional; details: Homo sapiens
P388 = test: cells; type: functional; details: Mus musculus
[1] = A cytotoxicity screen of small molecule inhibitors of the PhoP region in Salmonella typhi identified in the primary screen. [Related pubchem assays: 1850, 1864, 1985 ]; type: functional
Leucine aminopeptidase = biological target: T1, Leucine aminopeptidase (Plasmodium falciparum 3D7, UniProt Q8IL11); test: P. falciparum M17LAP inhibitors, primary screen, biochemical, fluorogenic H-Leu-NHMec substrate, 1536-well (AID 1619); type: functional
T1 sequence (Q8IL11 whole entry): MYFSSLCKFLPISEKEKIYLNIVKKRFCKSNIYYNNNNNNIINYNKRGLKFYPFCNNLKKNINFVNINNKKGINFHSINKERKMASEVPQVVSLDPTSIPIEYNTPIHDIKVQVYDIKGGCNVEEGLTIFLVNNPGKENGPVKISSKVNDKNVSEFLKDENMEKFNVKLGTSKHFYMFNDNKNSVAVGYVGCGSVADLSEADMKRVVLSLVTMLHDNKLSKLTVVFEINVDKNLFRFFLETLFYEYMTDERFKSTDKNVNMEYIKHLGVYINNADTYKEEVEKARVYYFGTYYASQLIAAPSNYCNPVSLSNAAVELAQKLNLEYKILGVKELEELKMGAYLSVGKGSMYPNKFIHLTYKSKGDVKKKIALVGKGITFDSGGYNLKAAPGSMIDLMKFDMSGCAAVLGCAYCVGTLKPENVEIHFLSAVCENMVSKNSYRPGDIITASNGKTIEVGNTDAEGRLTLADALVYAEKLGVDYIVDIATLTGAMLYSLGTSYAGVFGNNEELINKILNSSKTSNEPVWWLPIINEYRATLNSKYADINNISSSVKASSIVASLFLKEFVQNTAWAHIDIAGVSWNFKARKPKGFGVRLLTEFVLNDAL

[2] = test system: Streptococcus sp. 'group A'; test: Streptococcus pyogenes SK(-)GAS viability under kanamycin – luminescence, BacTiterGlo, confirmation, counter-screen for streptokinase expression inhibitor project, dose response (AID 1900); type: functional, organism-based
Streptococcus = test: GAS UMAA2166 growth inhibition – luminescence, BacTiterGlo, counter-screen for streptokinase expression inhibitor project, dose response (AID 1915); type: functional, organism-based;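 further: potency for reduction of bacterial viability or growth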
[3] = biological target: T2, Carboxy-terminal domain RNA polymerase II polypeptide A small phosphatase 1 (Homo sapiens, UniProt Q9GZU7); test: CTDSP1 inhibitors, concentration-response, biochemical, absorbance readout, ultra-high-throughput screen actives (AID 540297); type: functional
T2 sequence (Q9GZU7 whole entry): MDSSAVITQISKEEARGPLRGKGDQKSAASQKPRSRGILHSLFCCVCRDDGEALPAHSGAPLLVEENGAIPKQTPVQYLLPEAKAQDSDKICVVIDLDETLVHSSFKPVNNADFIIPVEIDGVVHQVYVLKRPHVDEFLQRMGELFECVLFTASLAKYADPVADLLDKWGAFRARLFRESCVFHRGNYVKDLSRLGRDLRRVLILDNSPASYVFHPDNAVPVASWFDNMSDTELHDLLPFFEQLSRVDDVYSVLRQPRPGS

[4] = microbe, parasite or virus in culture; type: functional; details: Mycobacterium tuberculosis
Prothrombin [5] = biological target: Prothrombin (Homo sapiens, UniProt P00734); test: Thrombin 1536 HTS Dose Response Confirmation. [Related pubchem assays: 1046 (Thrombin 1536 HTS; hits were confirmed in this assay)]; type: functional
[6] = biological target: T3, RNA-binding protein pos-1 (Caenorhabditis elegans, UniProt G5EF15); test: disruptors of C. elegans POS-1 RNA interaction – biochemical, fluorescence polarization, dose response (AID 1964);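 further: purified POS-1 fused to maltose binding protein made in E. coli; potency of compounds blocking POS-1 binding to fluorescent RNA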
T3 sequence (G5EF15 whole entry): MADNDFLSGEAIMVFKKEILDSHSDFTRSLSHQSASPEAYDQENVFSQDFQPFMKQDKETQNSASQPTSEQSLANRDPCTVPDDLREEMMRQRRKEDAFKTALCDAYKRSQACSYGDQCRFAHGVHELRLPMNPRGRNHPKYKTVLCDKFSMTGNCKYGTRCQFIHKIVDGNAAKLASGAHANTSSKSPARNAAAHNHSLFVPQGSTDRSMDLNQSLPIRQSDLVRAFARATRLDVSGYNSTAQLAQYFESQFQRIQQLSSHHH

[7] = biological target: T4, Zinc finger protein mex-5 (Caenorhabditis elegans, UniProt Q9XUB2); test: potency of MEX-5 RNA-binding blockers – biochemical, C. elegans, fluorescence polarization, dose response (AID 1960)
T4 sequence (Q9XUB2 whole entry): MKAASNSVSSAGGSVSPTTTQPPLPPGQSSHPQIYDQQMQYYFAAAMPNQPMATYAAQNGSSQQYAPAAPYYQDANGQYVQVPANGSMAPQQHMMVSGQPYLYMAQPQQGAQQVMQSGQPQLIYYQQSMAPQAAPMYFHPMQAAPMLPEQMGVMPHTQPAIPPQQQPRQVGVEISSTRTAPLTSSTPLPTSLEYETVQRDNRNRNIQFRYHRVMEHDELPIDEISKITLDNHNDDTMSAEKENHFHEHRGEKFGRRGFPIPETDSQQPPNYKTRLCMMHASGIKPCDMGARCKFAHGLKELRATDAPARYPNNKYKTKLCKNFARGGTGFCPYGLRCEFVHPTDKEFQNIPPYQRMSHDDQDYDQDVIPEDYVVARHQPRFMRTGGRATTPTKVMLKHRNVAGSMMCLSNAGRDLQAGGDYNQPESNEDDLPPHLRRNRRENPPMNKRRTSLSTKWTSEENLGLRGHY

Protein skinhead-1 = biological target: T5, Protein skinhead-1 (Caenorhabditis elegans, UniProt P34707); type: functional
T5 sequence (P34707 whole entry): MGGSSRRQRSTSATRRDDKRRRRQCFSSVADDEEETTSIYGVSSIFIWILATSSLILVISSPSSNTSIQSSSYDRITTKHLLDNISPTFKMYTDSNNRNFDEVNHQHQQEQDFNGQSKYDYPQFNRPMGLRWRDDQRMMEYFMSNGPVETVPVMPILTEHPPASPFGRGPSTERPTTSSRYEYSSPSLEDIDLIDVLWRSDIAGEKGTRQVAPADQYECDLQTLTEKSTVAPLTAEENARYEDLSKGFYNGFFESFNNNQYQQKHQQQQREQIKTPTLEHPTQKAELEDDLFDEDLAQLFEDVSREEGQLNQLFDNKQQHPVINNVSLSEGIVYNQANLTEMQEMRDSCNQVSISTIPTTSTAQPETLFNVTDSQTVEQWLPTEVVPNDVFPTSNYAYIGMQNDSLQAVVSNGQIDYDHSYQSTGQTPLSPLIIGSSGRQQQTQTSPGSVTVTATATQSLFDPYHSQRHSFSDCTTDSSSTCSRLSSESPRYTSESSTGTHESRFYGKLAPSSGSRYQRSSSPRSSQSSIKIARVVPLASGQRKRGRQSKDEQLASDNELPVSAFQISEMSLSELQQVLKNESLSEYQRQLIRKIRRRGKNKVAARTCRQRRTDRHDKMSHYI

[8] = reduction of Shn3 3'UTR-driven luciferase in osteoblasts – cell-based, Clone20 osteoblasts, firefly luciferase, cherry-picked, dose response (AID 624132); type: functional;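 further: firefly luciferase luminescence from reporter carrying the Shn3 3'UTR in osteoblasts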
[9] = non-specific 3'UTR reporter inhibition in Clone20-Shn3RL – cell-based, Renilla luciferase, cherry-picked, counter-screen for Shn3 inhibitor project, dose response (AID 624133); type: functional
[10] = biological target: 26S proteasome non-ATPase regulatory subunit 14 (Homo sapiens, UniProt O00487); test: inhibition of proteasome subunit RPN11 – biochemical, fluorescence polarization, uHTS hits, confirmation (AID 602368); type: functional
[11] = biological target: 72 kDa type IV collagenase (Homo sapiens, UniProt P08253); test: Dose Response validation of uHTS RPN11 inhibitor hits using a MMP-2 Fluorescence assay.; type: functional
Prothrombin [12] = biological target: Prothrombin (Bos taurus, UniProt P00735); test: thrombin protease inhibitors – biochemical, fluorescence polarization, uHTS hits, dose response (AID 602369); type: functional
[13] = off-target signal loss in HeLa-CEM21 co-culture – HeLa F-luc CTL cells, cherry-picked, counter-screen for HIV-1 Env fusion inhibitor project, dose response (AID 652040); type: functional, cell-based;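 further: potency for signal decrease marking cytotoxic or nonspecific inhibition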
[14] = HIV-1 AD8 envelope cell-cell fusion blockers – cherry-pick, dose response (AID 652062); type: functional, cell-based;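 further: luciferase signal from cell-cell fusion driven by HIV-1 clade B AD8 Env; potency is for inhibitors of fusion seen as a drop in luminescence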
Nonstructural protein 1 = Nonstructural protein 1 (Influenza A virus, UniProt Q194T2); type: functional, Influenza A virus (A/California/07/2009(H1N1))
Nonstructural protein 1, sequence (Q194T2 whole entry): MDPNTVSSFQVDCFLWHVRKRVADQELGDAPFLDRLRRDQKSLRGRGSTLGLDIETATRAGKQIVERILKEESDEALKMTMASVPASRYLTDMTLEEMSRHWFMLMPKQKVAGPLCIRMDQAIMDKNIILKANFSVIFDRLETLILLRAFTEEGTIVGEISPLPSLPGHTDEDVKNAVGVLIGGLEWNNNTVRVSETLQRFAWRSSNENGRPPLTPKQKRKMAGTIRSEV

26S proteasome non-ATPase regulatory subunit 14, sequence (O00487 whole entry): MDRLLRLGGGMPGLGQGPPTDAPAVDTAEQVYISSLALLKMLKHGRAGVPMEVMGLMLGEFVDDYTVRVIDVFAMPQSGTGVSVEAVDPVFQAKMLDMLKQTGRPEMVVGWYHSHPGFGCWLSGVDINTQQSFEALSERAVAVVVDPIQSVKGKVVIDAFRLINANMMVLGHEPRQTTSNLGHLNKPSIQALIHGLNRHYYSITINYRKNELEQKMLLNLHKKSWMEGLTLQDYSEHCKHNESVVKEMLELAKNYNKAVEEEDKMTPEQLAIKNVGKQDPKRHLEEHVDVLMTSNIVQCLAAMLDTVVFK
72 kDa type IV collagenase, sequence (P08253 whole entry): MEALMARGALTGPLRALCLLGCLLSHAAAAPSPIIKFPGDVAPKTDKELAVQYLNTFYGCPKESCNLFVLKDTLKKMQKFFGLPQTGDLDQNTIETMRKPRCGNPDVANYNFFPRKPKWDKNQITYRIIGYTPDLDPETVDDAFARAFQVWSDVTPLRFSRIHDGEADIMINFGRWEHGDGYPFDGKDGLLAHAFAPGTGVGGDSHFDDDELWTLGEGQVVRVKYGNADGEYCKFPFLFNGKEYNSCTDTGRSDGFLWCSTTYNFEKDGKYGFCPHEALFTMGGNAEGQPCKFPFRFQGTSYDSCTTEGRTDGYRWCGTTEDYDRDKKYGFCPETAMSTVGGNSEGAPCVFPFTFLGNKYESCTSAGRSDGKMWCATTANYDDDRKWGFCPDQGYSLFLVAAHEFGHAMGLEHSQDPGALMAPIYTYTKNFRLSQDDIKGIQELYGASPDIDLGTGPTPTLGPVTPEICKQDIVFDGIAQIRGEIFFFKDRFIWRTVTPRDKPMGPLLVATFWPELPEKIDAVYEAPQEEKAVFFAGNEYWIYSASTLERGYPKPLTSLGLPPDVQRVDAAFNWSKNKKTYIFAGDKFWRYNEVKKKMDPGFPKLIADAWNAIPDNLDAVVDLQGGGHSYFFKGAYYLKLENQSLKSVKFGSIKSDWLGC

Nc1ccc2cc(S(=O)(=O)O)cc(O)c2c1/N=N/c1ccc(NC(=O)Nc2ccc(/N=N/c3c(N)ccc4cc(S(=O)(=O)O)cc(O)c34)c(S(=O)(=O)O)c2)cc1S(=O)(=O)O
GI50 (P388/ADR): 95.5 µM (inactive) | GI50 (SN12K1): > 100 µM (inactive) | GI50 (P388): 45.2 µM (inactive)

CC(NCc1ccc(Cl)cc1)C(O)c1ccccc1 (centres undefined)
EC50 [1]: > 50 µM (active)

Cc1nnc(SCC2=C(C(=O)O)N3C(=O)C(NC(=O)Cn4nc(C(F)F)c(Cl)c4C)C3SC2)s1 (centres undefined)
IC50 (Leucine aminopeptidase): 13.9 µM (active) | EC50 [2]: < 0.06 µM (active) | EC50 (Streptococcus): 0.228 µM (active)

O=C(CSc1nc(O)cc(-c2ccccc2)n1)Nc1ccccn1
IC50 (Leucine aminopeptidase): 8.69 µM (active)

NC(=NOC(=O)c1cccc([N+](=O)[O-])c1)c1cccc([N+](=O)[O-])c1
IC50 [3]: 11.2 µM (active)

CCc1c(O)cc(=O)n(-c2ccccc2)c1-c1ccccc1
IC50 (Leucine aminopeptidase): 23.5 µM (active)

O=C(CCn1c(=O)c2cccn2c2cccnc21)N1CCN(c2cccc(Cl)c2)CC1
CC50 [4]: > 40 µM (active)

CSc1ccc(/C=C(\C(=O)O)c2ccc(S(=O)(=O)N3CCCC3)s2)cc1
IC50 [3]: 5.2 µM (active)

C[N@+]12CC[C@H](CC1)C(=C(c1ccccc1)c1ccccc1)C2
IC50 [3]: 3.04 µM (active)

CC(=O)OCC1(C)CN(c2ccccc2)N(C(=O)c2ccc(C(C)(C)C)cc2)C1=O (centres undefined)
IC50 (Prothrombin [5]): 18 µM (active)

Cc1cccc(-n2ccnc2CN2CCN(C3CCCC3)C(CCO)C2)c1 (centres undefined)
EC50 [1]: > 50 µM (active)

C=CCn1c(SCC(=O)NCc2ccc3c(c2)OCO3)nnc1C1COc2ccccc2O1 (centres undefined)
IC50 (Leucine aminopeptidase): < 1 µM (active)

COc1cc(S(=O)(=O)N2CCOCC2)ccc1NC(=O)COC(=O)c1ccccn1
IC50 (Prothrombin [5]): 0.545 µM (active)

N=c1c(C(=O)NC2CCCCC2)cc2c(=O)n3ccccc3nc2n1Cc1ccc(F)cc1
EC50 [6]: > 300 µM (not active) | EC50 [7]: 13.3 µM (active) | CC50 [4]: > 40 µM (active)

N=C(NOC(=O)COc1ccc2ccccc2c1)c1ccccn1
EC50 [1]: > 50 µM (active)

CCOC(=O)CSC1=N/C(=C/c2ccc(-n3cncn3)cc2)C(=O)N1C(C)=O
IC50 (Prothrombin [5]): 0.942 µM (active)

COC(=O)c1ccc(NC(S)=NNC(=O)c2ccccc2)cc1
EC50 [1]: > 50 µM (active)

Brc1ccc(Oc2nnnn2-c2ccccc2)cc1
IC50 (Protein skinhead-1): 35.1 µM (active)

Cc1cc(NC(=O)Cc2ccsc2)ccc1Br
IC50 (Protein skinhead-1): > 100 µM (inactive)

COC(c1ccccc1)c1nnc(CCC(=O)N(C)Cc2cccc(-n3cccn3)c2)o1 (centres undefined)
IC50 (Prothrombin [5]): > 50 µM (not active)

CCOC(=O)N1CCN(CCC(=O)c2ccc(Br)cc2)CC1
EC50 [1]: > 50 µM (active)

O=C(Nc1ccc2[nH]c(-c3ccc(Br)o3)nc2c1)c1ccco1
EC50 [1]: > 50 µM (active)

O=C(C1CCCCC1)N1CCN(S(=O)(=O)c2ccc(Cl)cc2)CC1
IC50 (Protein skinhead-1): > 100 µM (inactive)

O=C(O)CSCC(=O)NCc1cccc(C(F)(F)F)c1
IC50 (Prothrombin [5]): > 50 µM (not active)

CC(C)(C)[C@@H]1COC(=O)[C@@H](NC(=O)OCC2c3ccccc3-c3ccccc32)C/C=C\C[C@@H](CC(=O)NCCO)C(=O)N1
AC50 [8]: 22.1 µM (active) | AC50 [9]: 26.3 µM (active)

O=C1Nc2ccc(S(=O)(=O)NCc3ccccn3)c3cccc1c23
IC50 [3]: 8.42 µM (active)

N/C(=N\O)N/N=C/c1cc2c(cc1Cl)OCO2
GI50 (P388/ADR): 23.7 µM (inactive) | GI50 (SN12K1): 31.3 µM (inactive) | GI50 (P388): 29.3 µM (inactive)

C=CCN1C(=O)/C(=C\Nc2cccc([N+](=O)[O-])c2)C(=O)N(CCCC)C1=O
IC50 [10]: 34 µM (active) | IC50 [11]: > 100 µM (inactive) | IC50 (Prothrombin [12]): 42.7 µM (active)

O=C1CN(CC(=O)N2CCCCC2)c2ccccc2O1
CC50 [4]: 38.6 µM (active)

O=C(COC(=O)c1cncc(Br)c1)Nc1nnc(-c2ccccc2)o1
IC50 [3]: 6.29 µM (active)

Cn1cccc1C(=O)OCC(=O)NCCc1ccc(S(N)(=O)=O)cc1
AC50 [13]: > 70 µM (inactive) | AC50 [14]: 7.13 µM (active)

O=C(CCCN1CCC(C(O)c2ccc(F)cc2)CC1)c1ccc(F)cc1 (centres undefined)
GI50 (P388/ADR): 46.1 µM (inactive) | GI50 (SN12K1): 56.4 µM (inactive) | GI50 (P388): 38.3 µM (inactive)

Cc1c2c(cc3c1[nH]c1ccccc13)C(c1ccc(Cl)cc1)=NCC2
GI50 (P388/ADR): 0.428 µM (active) | GI50 (SN12K1): 0.284 µM (active) | GI50 (P388): 0.398 µM (active)

CO[C@H]1CN(C)C(=O)c2cc(NC(=O)C3CCOCC3)ccc2OC[C@H](C)N(Cc2nccs2)C[C@H]1C
AC50 [13]: 43.3 µM (active) | AC50 [14]: 24.9 µM (active)

Cc1c2cc[n+](C)cc2c(C)c2c1[nH]c1ccccc12
GI50 (P388/ADR): 55.5 µM (inactive) | GI50 (SN12K1): 0.416 µM (active) | GI50 (P388): 0.887 µM (active)

Cc1cc(N2CCN(C3CCCCC3)CC2)nc2cccc(O)c12
EC50 [1]: > 50 µM (active) | IC50 (Nonstructural protein 1): > 100 µM (active)

COc1nc(C(Cl)(Cl)Cl)c(Cl)c(OC)c1Cl [PENCLOMEDINE]
GI50 (P388/ADR): 40.6 µM (inactive) | GI50 (SN12K1): 28.3 µM (inactive) | GI50 (P388): 8.61 µM (inactive)
